One series relates to PRV=pseudorabies virus. Particulars: fibrinogen 5 g/L, UVC 254 nm, eight passes.
A further series has as its system Factor VIII. Format: biochemical.
The conditions of series [1]: cited from earlier work.

Like-named read-outs stand apart in the source and are kept apart here.

Regarding `COc1cc(C=O)ccc1O` [vanillin], the “Log reduction PRV” value was 5 Log in the series with PRV=pseudorabies virus (stabiliser 0.5 mM), 5.5 Log in the series with PRV=pseudorabies virus (stabiliser 1 mmol/l) and 5.5 Log with PRV=pseudorabies virus (stabiliser 2 mmol/l). In the series on Factor VIII, the “decrease in FVIII activity” value turned out to be 10%. Also, the PRV titer reduction in the series with PRV came to 5 Log.

With `C[C@@H]1O[C@@H](OC[C@H]2O[C@@H](Oc3c(-c4ccc(O)c(O)c4)oc4cc(O)cc(O)c4c3=O)[C@H](O)[C@@H](O)[C@@H]2O)[C@H](O)[C@H](O)[C@H]1O` [rutin, reference compound], the “Log reduction PRV” value is reported as 3 Log in the series on PRV=pseudorabies virus (stabiliser 0.5 mM), 3 Log with PRV=pseudorabies virus (stabiliser 1 mmol/l) and 2.5 Log in the series with PRV=pseudorabies virus (stabiliser 2 mmol/l). Moreover, in series [1], the “solubility in aqueous solutions” value was “poorly soluble in aqueous solutions”.

The values above are taken from patent publication US20040131497A1, “PROCESS FOR STERILIZATION OF BIOLOGICAL COMPOSITIONS CONTAING PROTEIN” (priority 2002, published 2004).
